{"source": "patent US20210346414A1", "about": "“APPLICATION OF GLYCOSIDES IN THE PREPARATION OF DRUGS FOR PREVENTING AND TREATING DIABETES COMPLICATIONS” (CHENGDU SINNOCEAN BIOTECHNOLOGY CO., LTD., priority 2018, published 2021)", "assay_type_in_all_cases": "in vivo", "key": {"[1]": {"system": "spontaneous type II diabetic db/db mice", "experiment": "Hypoglycemic effect test: tail vein blood glucose during 12 weeks of dosing", "method": "(§1) Design of test groups: db/m group, db/db mice are divided into the following six groups: blank control group (no glucose), negative control group (model group), positive control group (350 mg/kg metformin), H2 low dose group (40 mg/kg), H2 medium dose group (80 mg/kg), H2 high dose group (160 mg/kg); • Number of animals: 12 mice for each group; • Sex: male;\n(§2) Administration frequency: once a day, for 12 weeks; db/m group, blank control group and negative control group: receiving distilled water; positive control group: positive drug metformin; other administration groups: receiving different dose of test drug H2, respectively; the day of administration was defined as the first day of the test.\nSampling frequency: blood glucose was detected once every 2 weeks after grouping, and then after glucose was administrated, the blood glucose was further measured. Sampling site: tail vein; sampling volume: about 1 drop; blood glucose detection: real-time detection by blood glucose meter."}, "[2]": {"system": "spontaneous type II diabetic db/db mice", "experiment": "Kidney histopathology grading after treatment", "parameters": "key to kidney / Basophilic changes in renal tubules / Monocyte infiltration / Hypertrophy of renal tubular epithelial cells / Dilation of the renal pelvis / Protein casts / Glomerular dilation / Glomerulosclerosis: “N” means normal tissue morphology and structure; “E” means changed tissue morphology and structure; “—” means no such pathological change", "settings": "12 weeks", "method": "as §1, §2\nAfter completion of the test, the kidney was dissected and collected. The histopathological results of the kidney indicated the grades by referring to the principles and standards in literature\n(Fermented Milk has Anti-diabetic Effects: Anti-diabetic Effect of Fermented Milk Containing Conjugated Linoleic Acid on Type II Diabetes Mellitus, Korean J. Food Sci. An., Vol. 36, No. 2 (2016))."}, "[3]": {"system": "spontaneous type II diabetic db/db mice", "experiment": "Prevention and treatment of retinopathy: pathological staining of eyeball, grading of retinal ganglion cell layer degeneration", "parameters": "key to Left eye / Right eye / Retinal degeneration, ganglion cell layer (right eye) / Retinal degeneration, ganglion cell layer (left eye): “N” means normal tissue morphology and structure; “E” means changed tissue morphology and structure; “—” means no such pathological change", "settings": "12 weeks", "method": "as §1, §2\nDuring the test period, compared with the animals in normal control group, the retinal ganglion cell layer of animals in each group had different degrees of degeneration except for the test drug H2 high-dose group. According to the severity of the degeneration of the retinal ganglion cell layers, there were 0-4 grades according to the pathological grading principle in the literature\n(Fermented Milk has Anti-diabetic Effects: Anti-diabetic Effect of Fermented Milk Containing Conjugated Linoleic Acid on Type II Diabetes Mellitus, Korean J. Food Sci. An., Vol. 36, No. 2 (2016)). The larger the value, the more severe the disease."}, "[4]": {"system": "spontaneous type II diabetic db/db mice", "experiment": "Kidney function: blood urea nitrogen (UREA), blood creatinine (CREA) and renal index before and after administration", "settings": "MEAN ± SEM", "method": "as §1, §2\n(1) Changes of blood urea nitrogen (UREA) and blood creatinine (CREA) as well as renal index before and after administration"}, "[5]": {"settings": "metformin 350 mg/kg oral gavage once a day, MEAN ± SEM"}, "[6]": {"settings": "metformin 350 mg/kg oral gavage once a day, individual animals"}, "[7]": {"settings": "metformin 350 mg/kg oral gavage once a day, individual animals, grade"}, "[8]": {"settings": "metformin 350 mg/kg oral gavage once a day, individual animals, grades 0-4, larger = more severe"}, "[9]": {"settings": "metformin 350 mg/kg oral gavage once a day, 12 weeks"}}, "note": "Values joined by “and” are separate entries in the source; they are usually repeats but may differ in a detail not shown here. Equal values may be shown once."}
{"compound": "CN(C)C(=N)N=C(N)N", "note": "[metformin, Metformin]", "values": [{"measurement": "Blood glucose concentration, Administrating for 15 days", "setting": "[1]; [5]", "value": "6.95 ± 0.57", "unit": "mmol/L"}, {"measurement": "Blood glucose concentration, Administrating for 29 days", "setting": "[1]; [5]", "value": "8.30 ± 0.94", "unit": "mmol/L"}, {"measurement": "Blood glucose concentration, Administrating for 43 days", "setting": "[1]; [5]", "value": "8.93 ± 1.15", "unit": "mmol/L"}, {"measurement": "Blood glucose concentration, Administrating for 57 days", "setting": "[1]; [5]", "value": "8.92 ± 1.12", "unit": "mmol/L"}, {"measurement": "Blood glucose concentration, Administrating for 72 days", "setting": "[1]; [5]", "value": "8.80 ± 1.11", "unit": "mmol/L"}, {"measurement": "Blood glucose concentration, Administrating for one day", "setting": "[1]; [5]", "value": "13.78 ± 1.74", "unit": "mmol/L"}, {"measurement": "Hypoglycemic effect (in words)", "setting": "[1]; metformin 350 mg/kg, vs. negative control group, from the 15th day, P<0.001", "value": "could significantly reduce the blood sugar of db/db mice"}, {"measurement": "kidney", "setting": "[2]; [6]", "value": "E"}, {"measurement": "Basophilic changes in renal tubules", "setting": "[2]; [7]", "value": "— (8×) and 1"}, {"measurement": "Dilation of the renal pelvis", "setting": "[2]; [7]", "value": "—"}, {"measurement": "Glomerular dilation", "setting": "[2]; [7]", "value": "—"}, {"measurement": "Glomerulosclerosis", "setting": "[2]; [7]", "value": "1 and — (8×)"}, {"measurement": "Hypertrophy of renal tubular epithelial cells", "setting": "[2]; [7]", "value": "—"}, {"measurement": "Monocyte infiltration", "setting": "[2]; [7]", "value": "—"}, {"measurement": "Proliferation of glomerular mesangum or mesangial cells", "setting": "[2]; [7]", "value": "1 (3×) and 2 (6×)"}, {"measurement": "Protein casts", "setting": "[2]; [7]", "value": "—"}, {"measurement": "Proliferation of glomerular mesangum or mesangial cells (in words)", "setting": "[2]; metformin 350 mg/kg, no statistical difference vs. negative control group", "value": "showed the effect trend of alleviating the proliferation of glomerular mesangum or mesangial cells"}, {"measurement": "Left eye", "setting": "[3]; [6]", "value": "E (3×) and N (6×)"}, {"measurement": "Right eye", "setting": "[3]; [6]", "value": "N (8×) and E"}, {"measurement": "Retinal degeneration, ganglion cell layer (left eye)", "setting": "[3]; [8]", "value": "2 (2×) and — (6×) and 1"}, {"measurement": "Retinal degeneration, ganglion cell layer (right eye)", "setting": "[3]; [8]", "value": "— (8×) and 1"}, {"measurement": "Improvement of retinopathy (in words)", "setting": "[3]; metformin 350 mg/kg, vs. negative control group", "value": "hardly improved the symptoms of retinopathy"}, {"measurement": "Before administration CREA", "setting": "[4]; metformin 350 mg/kg group, before administration (baseline)", "value": "4.50 ± 1.38", "unit": "µmol/L"}, {"measurement": "Change rate of CREA", "setting": "[4]; [9]", "value": "0.83 ± 0.17"}, {"measurement": "Renal index", "setting": "[4]; [9]", "value": "0.43 ± 0.03", "unit": "%"}]}
